Tested on: Plasmodium berghei
Test: Luciferase/luciferin-expressing antifolate-resistant parasites were used to infect a culture of HepG2 cells that were pre-incubated with compounds. Infected hepatocytes emit light due to the luciferase reaction. Assay results are presented as the percent inhibition of light emission compared to control. […]
Format: functional
Settings: sporozoite; for IC90: read-out: LUCIFERASE INFECTION ASSAY - IC90

Row | Structure (SMILES) | IC90 [µM] | other results
1 | COc1cc(/C=C(/C(=O)c2cccs2)c2nc3ccccc3[nH]2)cc(OC)c1O | > 10 | IC50 (HEPG2TOX_HILL_SLOPE 9.16, HEPG2TOX_R_SQUARED 0.911, PBLUC_HILL_SLOPE 3.79, PBLUC_R_SQUARED 0.1, read-out: LUCIFERASE INFECTION ASSAY - IC50): 7.39 µM
2 | O=C(NC1CC1)c1ccc(-c2cn3c(-c4ccc(O)cc4)cnc3cn2)cc1 | > 8.91 | IC50 (HEPG2TOX_HILL_SLOPE 9.19, HEPG2TOX_R_SQUARED 0.833, PBLUC_HILL_SLOPE 2.2, PBLUC_R_SQUARED 0.157, read-out: LUCIFERASE INFECTION ASSAY - IC50): 7.74 µM
3 | Fc1ccc(-c2ccnc3n[nH]c(C4CC4)c23)cc1Cl | > 10 | IC50 (HEPG2TOX_HILL_SLOPE 9.31, HEPG2TOX_R_SQUARED 0.217, read-out: LUCIFERASE INFECTION ASSAY - IC50): > 10 µM
4 | O=C(Cc1csc(-c2ccccc2Cl)n1)NCCCCOc1ccc(F)cc1 | > 10 | IC50 (HEPG2TOX_HILL_SLOPE 9.37, HEPG2TOX_R_SQUARED 0.776, PBLUC_HILL_SLOPE 2.48, PBLUC_R_SQUARED 0.584, read-out: LUCIFERASE INFECTION ASSAY - IC50): 5.48 µM
5 | CCc1ccc(OCC(O)Cn2c(=O)c3ccccc3n3nc(C)cc23)cc1 (centres undefined) | 9.43 | IC50 (HEPG2TOX_HILL_SLOPE 9.12, HEPG2TOX_R_SQUARED 0.677, PBLUC_HILL_SLOPE 3.87, PBLUC_R_SQUARED 0.197, read-out: LUCIFERASE INFECTION ASSAY - IC50): 5.34 µM
6 | CN(C)c1ccc(C(=O)N2CCc3nc(NCc4cccc(Oc5ccccc5)c4)ncc3C2)cc1 | > 6.88 | IC50 (HEPG2TOX_HILL_SLOPE 9.14, HEPG2TOX_R_SQUARED 0.261, read-out: LUCIFERASE INFECTION ASSAY - IC50): > 6.88 µM
7 | Oc1c(Br)cc(/C=C/c2nc3cc(Cl)ccc3o2)cc1Br | > 10 | IC50 (HEPG2TOX_HILL_SLOPE 9.25, HEPG2TOX_R_SQUARED 0.294, read-out: LUCIFERASE INFECTION ASSAY - IC50): > 10 µM
8 | CC(=O)NC(C)CCc1ccc(C(=O)Cn2ncc(Cl)c(Cl)c2=O)cc1 (centres undefined) | 9.36 | IC50 (HEPG2TOX_HILL_SLOPE 9.09, HEPG2TOX_R_SQUARED 0.148, PBLUC_HILL_SLOPE 4.21, PBLUC_R_SQUARED 0.695, read-out: LUCIFERASE INFECTION ASSAY - IC50): 5.55 µM
9 | Brc1ccc(-c2noc(CCc3nc4ccccc4[nH]3)n2)cc1 | 7.07 | IC50 (HEPG2TOX_HILL_SLOPE 9.24, HEPG2TOX_R_SQUARED 0.722, PBLUC_HILL_SLOPE 3.58, PBLUC_R_SQUARED 0.661, read-out: LUCIFERASE INFECTION ASSAY - IC50): 3.83 µM
10 | CN(C)CCCOc1ccc(-c2nnc3ccc(-c4cccc(Cl)c4)cn23)cc1 | > 10 | IC50 (HEPG2TOX_HILL_SLOPE 9.26, HEPG2TOX_R_SQUARED 0.159, PBLUC_HILL_SLOPE 2.15, PBLUC_R_SQUARED 0.0523, read-out: LUCIFERASE INFECTION ASSAY - IC50): 7.9 µM
11 | FC(F)(F)c1cnc(N/N=C/c2cccs2)c(Cl)c1 | 10.6 | IC50 (HEPG2TOX_HILL_SLOPE 9.1, HEPG2TOX_R_SQUARED 0.955, PBLUC_HILL_SLOPE 28.7, PBLUC_R_SQUARED 0.321, read-out: LUCIFERASE INFECTION ASSAY - IC50): 9.82 µM
12 | Cc1nc(Sc2nnnn2-c2ccccc2)c2c3c(sc2n1)CCC3 | > 10 | IC50 (HEPG2TOX_HILL_SLOPE 9.14, HEPG2TOX_R_SQUARED 0.239, read-out: LUCIFERASE INFECTION ASSAY - IC50): > 10 µM
13 | CC(C)(C)c1csc(-c2ccc(-n3cncn3)nc2)n1 | > 11.6 | IC50 (HEPG2TOX_HILL_SLOPE 9.36, HEPG2TOX_R_SQUARED 0.478, read-out: LUCIFERASE INFECTION ASSAY - IC50): > 11.6 µM
14 | COc1ccc(NC(C)=O)cc1Nc1nc(C(F)(F)F)nc2ccccc12 | > 10 | IC50 (HEPG2TOX_HILL_SLOPE 9.23, HEPG2TOX_R_SQUARED 0.863, PBLUC_HILL_SLOPE 3.13, PBLUC_R_SQUARED 0.379, read-out: LUCIFERASE INFECTION ASSAY - IC50): 6.22 µM
15 | Nc1ncnc(Sc2nnnn2-c2ccccc2)c1[N+](=O)[O-] | > 10 | IC50 (HEPG2TOX_HILL_SLOPE 9.17, HEPG2TOX_R_SQUARED 0.951, read-out: LUCIFERASE INFECTION ASSAY - IC50): > 10 µM
16 | Cc1nc(N2CCc3ccccc32)c2c3c(sc2n1)CCC3 | 4.64 | IC50 (HEPG2TOX_HILL_SLOPE 9.23, HEPG2TOX_R_SQUARED 0.902, PBLUC_HILL_SLOPE 9.42, PBLUC_R_SQUARED 0.51, read-out: LUCIFERASE INFECTION ASSAY - IC50): 3.68 µM

Row | Structure (SMILES) | IC90 [µM] | other results
17 | CNS(=O)(=O)c1cc(C(=O)OCc2ccc(-c3ccccc3C#N)cc2)n(C)c1 | > 10 | IC50 (HEPG2TOX_HILL_SLOPE 9.24, HEPG2TOX_R_SQUARED 0.528, PBLUC_HILL_SLOPE 2.62, PBLUC_R_SQUARED 0.748, read-out: LUCIFERASE INFECTION ASSAY - IC50): 5.4 µM
18 | Cc1cc(/C=C(\C#N)c2nc3ccccc3[nH]2)c(C)n1-c1cc(C(F)(F)F)ccc1Cl | 5.02 | IC50 (HEPG2TOX_HILL_SLOPE 9.28, HEPG2TOX_R_SQUARED 0.884, PBLUC_HILL_SLOPE 1.82, PBLUC_R_SQUARED 0.761, read-out: LUCIFERASE INFECTION ASSAY - IC50): 1.5 µM
19 | CC(C)Cn1c(N)c(C(=O)COC(=O)c2c3c(nc4ccccc24)CCCCC3)c(=O)n(C)c1=O | 1.27 | IC50 (HEPG2TOX_HILL_SLOPE 9.18, HEPG2TOX_R_SQUARED 0.068, PBLUC_HILL_SLOPE 16.7, PBLUC_R_SQUARED 0.609, read-out: LUCIFERASE INFECTION ASSAY - IC50): 1.11 µM
20 | Cc1cc(N(C)C(C)c2ccc(-n3cnc4ccccc43)cc2)n2ncnc2n1 (centres undefined) | > 10 | IC50 (HEPG2TOX_HILL_SLOPE 9.21, HEPG2TOX_R_SQUARED 0.124, PBLUC_HILL_SLOPE 9.5, PBLUC_R_SQUARED 0.615, read-out: LUCIFERASE INFECTION ASSAY - IC50): 8.2 µM
21 | CCCOc1c(Cl)cc(C(=O)N2CCN(c3cccc(C)c3C)CC2)cc1OC | > 10 | IC50 (HEPG2TOX_HILL_SLOPE 9.26, HEPG2TOX_R_SQUARED 0.489, PBLUC_HILL_SLOPE 10.9, 0.598, PBLUC_R_SQUARED 0.349, 0.728, read-out: LUCIFERASE INFECTION ASSAY - IC50): 3.13 µM
22 | Cc1ccc(-n2nc(C)c(NC(=O)COc3ccc4c(=O)c(-c5ccccc5)coc4c3)c2C)cc1 | 3.64 | IC50 (HEPG2TOX_HILL_SLOPE 9.24, HEPG2TOX_R_SQUARED 0.0911, PBLUC_HILL_SLOPE 28.6, PBLUC_R_SQUARED 0.544, read-out: LUCIFERASE INFECTION ASSAY - IC50): 3.37 µM
23 | CCN(CC)S(=O)(=O)c1cc(C(=O)Nc2nc3ccccc3[nH]2)n(C)c1 | 9.54 | IC50 (HEPG2TOX_HILL_SLOPE 9.29, HEPG2TOX_R_SQUARED 0.829, PBLUC_HILL_SLOPE 13.1, PBLUC_R_SQUARED 0.63, read-out: LUCIFERASE INFECTION ASSAY - IC50): 8.06 µM
24 | O=C(Nc1ccc(Cl)c(Cl)c1)OCCNC(=O)c1cccc(S(=O)(=O)N2CCCC2)c1 | 9.3 | IC50 (HEPG2TOX_HILL_SLOPE 9.3, HEPG2TOX_R_SQUARED 0.805, PBLUC_HILL_SLOPE 3.66, PBLUC_R_SQUARED 0.453, read-out: LUCIFERASE INFECTION ASSAY - IC50): 5.1 µM
25 | CCCOc1ccc(S(=O)(=O)NC2CCCCC2)c2ccccc12 | 8.57 | IC50 (HEPG2TOX_HILL_SLOPE 9.17, HEPG2TOX_R_SQUARED 0.712, PBLUC_HILL_SLOPE 2.91, PBLUC_R_SQUARED 0.385, read-out: LUCIFERASE INFECTION ASSAY - IC50): 4.03 µM
26 | CCN(CC)c1ccc(C(=O)NNS(=O)(=O)c2c(F)cc(F)c(Cl)c2F)cc1 | > 10 | IC50 (HEPG2TOX_HILL_SLOPE 9.38, HEPG2TOX_R_SQUARED 0.741, PBLUC_HILL_SLOPE 14.6, PBLUC_R_SQUARED 0.427, read-out: LUCIFERASE INFECTION ASSAY - IC50): 9.22 µM
27 | O=C(CCN1CCN(c2ccc([N+](=O)[O-])cc2)CC1)N1CCN(c2ccccn2)CC1 | 4.57 | IC50 (HEPG2TOX_HILL_SLOPE 9.17, HEPG2TOX_R_SQUARED 0.128, PBLUC_HILL_SLOPE 14.9, PBLUC_R_SQUARED 0.446, read-out: LUCIFERASE INFECTION ASSAY - IC50): 3.94 µM
28 | Cc1ccc(/C=N/Nc2nn3c(=O)c4ccccc4nc3c3ccccc23)o1 | 8.5 | IC50 (HEPG2TOX_HILL_SLOPE 9.29, HEPG2TOX_R_SQUARED 0.957, PBLUC_HILL_SLOPE 5.5, PBLUC_R_SQUARED 0.698, read-out: LUCIFERASE INFECTION ASSAY - IC50): 5.7 µM
29 | O=C(Nc1cccc(C(F)(F)F)c1)Nc1ccc2c(c1)no[n+]2[O-] | 1.2 | IC50 (HEPG2TOX_HILL_SLOPE 9.23, HEPG2TOX_R_SQUARED 0.804, PBLUC_HILL_SLOPE 15.5, PBLUC_R_SQUARED 0.688, read-out: LUCIFERASE INFECTION ASSAY - IC50): 1.04 µM
30 | COCCNc1ccc([N+](=O)[O-])cc1C(=O)Nc1nc2c(C)cccc2s1 | > 10 | IC50 (HEPG2TOX_HILL_SLOPE 9.09, HEPG2TOX_R_SQUARED 0.757, PBLUC_HILL_SLOPE 15.6, PBLUC_R_SQUARED 0.06, read-out: LUCIFERASE INFECTION ASSAY - IC50): 9.61 µM
31 | CCC(C)(C)c1ccc(Oc2ccc(NC(=O)CSc3nnc(-c4ccccc4)[nH]3)cc2)cc1 | 7.78 | IC50 (HEPG2TOX_HILL_SLOPE 9.08, HEPG2TOX_R_SQUARED 0.57, PBLUC_HILL_SLOPE 3.67, PBLUC_R_SQUARED 0.581, read-out: LUCIFERASE INFECTION ASSAY - IC50): 4.28 µM
32 | Cc1noc(C)c1COc1ccc(C(=O)OCC(=O)NCCC2=CCCCC2)cc1 | 8.4 | IC50 (HEPG2TOX_HILL_SLOPE 9.34, HEPG2TOX_R_SQUARED 0.702, PBLUC_HILL_SLOPE 3.46, PBLUC_R_SQUARED 0.677, read-out: LUCIFERASE INFECTION ASSAY - IC50): 4.45 µM

From ChEMBL document CHEMBL4483862, “Open-source discovery of chemical leads for next-generation chemoprotective antimalarials” (2018)
